Measurements: patent US6867235B2, “Helianthrone derivatives as anti-cancer agents” (Yeda Research and Development Co. Ltd., priority 2000, dated 2005)

Tests used:
[1] = test system: U251 human glioblastoma cells; test: Cell cycle and DNA content analysis (propidium iodide, FACS) in the dark; format: cell-based; conditions: for cell cycle arrest: U251, dark
Source text: The cells were then stained with propidium iodide, washed with PBS and analyzed in a fluorescence activated cell sorter (FACS). A computer program arranged the DNA-related fluorescence as follows: the minimal amount of fluorescence is considered to be one whole set of cellular DNA related to the resting G1 phase. A double amount of fluorescence is considered to be G2 phase, in which the whole genome is duplicated following complete DNA synthesis, and the in-between amounts are considered to be the DNA synthetic S-phase, in which the total DNA synthesis is not yet completed.

[2] = test system: human malignant glioblastoma cell lines; test: Photodynamic induction of cell death in glioblastoma cell lines with light; format: cell-based
Description: Cell killing by dimethyl-TMH occurred at doses in which hypericin had no effect on the cultures. […] The mechanisms that operate in the dark were very different from those that mediate light-induced photosensitization. In the dark, cell death occurs approximately four days after the compound is administered, whereas the cells died within 2-3 hours with light.
Photodynamic (PD) stress is the level of phototoxicity inflicted upon target cells by photodynamic compounds and exposure to light. Light irradiation was performed from a fluorescent source of two parallel 40 Watts tubes placed at a fixed distance of 16 cm and measured to emit an incidence of 4 mWatt/cm^2. Light intensities were quantitated using the IL 1350 Radiometer/Photometer, from International Light Inc., U.S.A.

[3] = test system: SQ2 anaplastic squamous cell carcinoma; test: Tumor foci in BALB/c mice bearing SQ2 squamous cell carcinoma treated with dimethyl-TMH; format: in vivo; conditions: for number of tumor foci / multifocal spread of the tumor: SQ2 tumor-bearing mice versus control
Description: The effective cytocidal activity of dimethyl-TMH in vitro encouraged the evaluation of its safety and anti-tumoral efficacy profile in tumor-bearing mice. Experiments were carried out in mice bearing tumors derived from the SQ2 highly metastatic anaplastic squamous cell carcinoma (SCC) line. This tumor develops as multifocal centers that spread at the vicinity of the primary tumor and metastases develop approximately two months after cell inoculation. Treatments with 300-600 μM dimethyl-TMH/mouse, administered twice or three-times a week were initiated when the tumors reached 5-7 mm in diameter.
When the primary tumors reached a diameter of 5 mm, therapy with 300 μM dimethyl-TMH/mouse, administered intraperitoneally twice per week, was initiated. Three weeks after the initiation of therapy, the number of tumor foci, which have developed at the primary tumor site, was recorded.

[4] = test system: U251 human glioblastoma cells; format: cell-based; conditions: U251, complete darkness, exposure at least 72 hours, 0.1-20 μM
Description: (§1) Human HL-60 leukemic cells were grown in RPMI-1640 supplemented with 15% fetal calf serum, […] and 100 units/ml penicillin-streptomycin. Human erythroleukemia K-562 cells (derived from a chronic myeloid leukemia pateient) were grown in the same medium supplemented with 10% fetal calf serum. These cells and the human U251 glioblastoma, U87MG glioblastoma and LAN5 neuroblastoma cells used in the experiments are available from the ATCC. All cell lines were cultured in a humidified 5% CO2/95% air atmosphere at 37° C.
(§2) Cell viability was monitored by the MTT assay which measures reduction of 3-(4,5-dimethylthiazol-2-yl)-2,5-diphenyl tetrazolium bromide to formasan by mitochondria of viable cells as described in Mossman, T., J. Immunogen., 21, 235-248 (1983). The cells are incubated with MTT for four hours at 37° C. and analyzed in an ELISA reader at 560 nm. The optical density of formasan generated by untreated cell cultures (O.D. control) is defined as one MTT unit. The number of MTT units in culture samples undergoing treatments is calculated as the ratio (O.D.sample−O.D.blank)/O.D.control).
Three human malignant cell lines were evaluated to sensitivity to dimethyl TMH in vitro. […] The medium was aspirated, the adherent monolayer was washed with phosphate-buffered saline, and cell viability was monitored by the MTI assay. […]

U87MG glioblastoma cells = test: MTT cell viability in complete darkness, U87MG cells; format: cell-based, human
Description: as §1, §2
(§3) Three human malignant cell lines were evaluated to sensitivity to dimethyl TMH in vitro. […] The medium was aspirated, the adherent monolayer was washed with phosphate-buffered saline, and cell viability was monitored by the MTI assay.

LAN5 neuroblastoma cells = test: MTT cell viability in complete darkness, LAN5 cells; format: cell-based, human; conditions: exposure at least 72 hours, 0.1-20 μM
Description: as §1, §2, §3

[5] = test system: human peripheral blood lymphocytes (PBL); test: MTT viability of primary peripheral blood lymphocytes in the dark and with light; format: cell-based; conditions: 72 hours
Description: as §2
Human peripheral blood lymphocytes (PBL) are non-proliferating cells in the absence of mitogenic stimuli. The effects of different doses of dimethyl-TMH on PBL were examined in the presence or absence of irradiation with polychromatic white light. PBL (post-mitotic) were plated (2×10^5 cells/well) in two separate round bottom 96-well plates (in triplicates). Dimethyl-TMH was added to the cultures. One plate was kept in the dark, and the other was exposed to polychromatic white light at a fluence rate of 8 mW/cm^2 for 30 min (a total of 14.4 J/cm^2). Both plates were then cultured at 37° C., 5% CO2 for 72 hours and cell viability was assayed by the MTT assay.

[6] = test system: anaplastic squamous cell carcinoma tumors; test: Tumor growth in mice bearing anaplastic squamous cell carcinoma tumors; format: in vivo, BALB/c mice; conditions: 200 μg/mouse every other day
[7] = Tolerability of intraperitoneal administration in mice; format: in vivo, BALB/c mice; conditions: i.p. on a daily basis for one week
[8] = test system: SQ2 highly metastatic anaplastic squamous cell carcinoma; test: Survival of SQ2 squamous cell carcinoma-bearing mice treated with dimethyl-TMH; format: in vivo, BALB/c mice
Description: In another experiment, BALB/c mice were inoculated with 5×10^5 cells of the SQ2 highly metastatic anaplastic squamous cell carcinoma line, intradermally in shaved backs. When the primary tumors reached a diameter of 3-4 mm, i.p. administration of dimethyl TMH 200 μg/mouse (400 μM/mouse) was initiated on day 7 after tumor cell inoculation and then administered twice weekly to the tumor-bearing mice 2× per week for six weeks (total of 12 doses). Animal survival was then followed. […] This appears to be the result of reduced metastatic growth as evident from Table 1 in Example 4 above.

tumor neovascularization = test: Tumor neovascularization in tumor-bearing mice; conditions: mouse, in vivo
Source text: These hitherto unknown attributes were detected while studying the effects of hypericin and of helianthrone derivatives on breast adenocarcinoma tumors induced in mice with the DA-3^HI cell line and on murine anaplastic squamous carcinoma tumors induced with the SQ-2 cell line. Both are highly metastatic tumors and if surgically resected after having reached a diameter larger than 5 mm, the mice will go on to develop metastases in the lungs and liver. The metastases cause death of the animals within approximately two months following surgery.
By preventing development of new blood vessels to supply a growing metastasis, the rapidly growing metastatic focus is deprived of nutrients and oxygen for its rapidly multiplying cells and the lesion degenerates.

[9] = 300 μM/mouse i.p. twice per week
[10] = 21 days after start of therapy, 300 μM/mouse i.p. twice per week

With `COc1cc(OC)c2c3c(OC)cc(OC)c4c(=O)c5ccc(C)cc5c(c43)c3c4cc(C)ccc4c(=O)c1c23` [dimethyl-TMH, 10,13-dimethyl-1,3,4,6-tetramethoxy-helianthrone] the “proportion of cells in the S-phase with duration of exposure” value ([1]; 10 μM, 24, 48, 72 hours) was “increased steadily”, the cell cycle arrest ([1]; 10 μM) was “arrest at mid-S phase” and the cell cycle arrest ([1]; 20 μM) was “exclusive arrest at the S phase”. The “phases of the cell replication cycle at which malignant cells are arrested” value ([1]; glioblastoma and neuroblastoma cells) was “mid S and G2 phases”, the “photodynamic induction of cell death compared with hypericin” value ([2]; treatment in conjunction with light) was “more potent than hypericin” and the “time to cell death” value ([2]; with light) was 2 to 3 h. For the same compound, the “toxicity of therapeutic doses to the animals” value [3, 9] was “non-toxic”, the “treated mice in which the primary tumors hardened and fell off” value [3, 9] was 5 and the “number of mice with 1 focus” value [3, 10] was 8. The “number of mice with 2 foci” value [3, 10] was 1, the “number of mice with 3 foci” value [3, 10] was 0 and the “number of mice with 4 foci” value [3, 10] was 0. For the same compound, the “number of tumor foci / multifocal spread of the tumor” value [3] was “considerably reduced”, the “number of tumor foci / multifocal spread of the tumor” value ([3]; listed as dimethyl TMH) was “completely inhibited” and the “cell viability (MTT)” value [4] was “Cell viability was lost”. The “cell viability (MTT)” value (U87MG glioblastoma cells; complete darkness, exposure at least 72 hours, 0.1-20 μM) was “Cell viability was lost”, the “loss of cell viability compared with hypericin” value (U87MG glioblastoma cells; in the dark) was “more effective than the treatment with hypericin” and the “cell viability (MTT)” value (LAN5 neuroblastoma cells) was “Cell viability was lost”. For the same compound, the “effect on cell viability” value ([5]; normal non-proliferating PBL, absence of light irradiation) was “no effect”, the “LD50 (cell death after photosensitization)” value ([5]; polychromatic white light 8 mW/cm2 for 30 min (14.4 J/cm2), MTT) was “approximately 0.65 μM” and the “tumor growth compared to untreated tumor-bearing control mice” value [6] was “significant inhibition of tumor growth”. For the same compound, the “adverse effect on the animals” value [7] was “no adverse effect”, the “prolongation of animal survival compared to untreated controls” value ([8]; 200 μg/mouse (400 μM/mouse) i.p. twice weekly for six weeks (12 doses)) was “approximately 40.3%” and the “primary tumor growth during the treatment” value ([8]; 200 μg/mouse i.p. twice weekly for six weeks) was “continued to grow”. The neovascularization of tumors (tumor neovascularization) was “prevented neovascularization”.
